From US20210261539A1, “COMPOUND HAVING BET INHIBITORY ACTIVITY AND PREPARATION METHOD AND USE THEREFOR” (Shanghai Haihe Pharmaceutical Co., Ltd., priority 2018, published 2021)

target: T1, BRD4 BD1 (Homo sapiens, UniProt O60885); assay: HTRF in vitro enzyme activity assay, inhibition of BRD4 BD1 binding to acetylated H4 peptide; conditions: IC50 values of the compounds against BRD4 BD1 binding; class symbols A/B/C
T1 construct: Protein BRD4 BD1 used in the assay was purchased from Active Motif (cat. 31380); purchased Active Motif 31380
In short: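 Recombinant human BRD4 BD1 (30 nM final) incubated with compound and biotinylated tetra-acetylated H4(1-21) peptide, 30 min at 37 °C; 5-point 1:5 dilution series, 0.1% DMSO final. HTRF read after 3 h at RT with SA-XL665 and Eu(K)-labelled antibody; IC50 derived.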

`C[C@H]1Oc2cc(N3C(=O)c4ccccc4C3c3cccnc3)ncc2N(C)C1=O` (single isomer, unassigned) [Example A123-P2] and `C[C@H]1Oc2cc(N3C(=O)c4ccccc4C3c3ccc(F)nc3)ncc2N(C)C1=O` (single isomer, unassigned) [Example A125-P1] fall in the same range of IC50: 100 to 1000 nM for the first, 100 to 1000 nM for the second.

`C[C@H]1Oc2nc(N3C(=O)c4ccccc4C3c3cccnc3)c(F)cc2N(C)C1=O` (single isomer, unassigned) [Example A124-P1] and `C[C@H]1Oc2nc(N3C(=O)c4ccccc4C3c3ccc(F)nc3)c(F)cc2N(C)C1=O` (single isomer, unassigned) [Example A126-P1] fall in the same range of IC50: 10 to 100 nM for the first, 10 to 100 nM for the second.

`C[C@H]1Oc2nc(N3C(=O)c4c(cccc4[S+](C)[O-])C3c3cccnc3)ccc2N(C)C1=O` (single isomer, unassigned) [Example A127-P1] and `C[C@H]1Oc2nc(N3C(=O)c4c(cccc4S(C)(=O)=O)C3c3cccnc3)ccc2N(C)C1=O` (single isomer, unassigned) [Example A128-P1] cannot be ordered by IC50: no more than 10 nM for the first, 10 to 100 nM for the second.

`C[C@H]1Oc2nc(N3C(=O)c4c([S+](C)[O-])cccc4C3(O)c3cccnc3)ccc2N(C)C1=O` (single isomer, unassigned) [Example A129-P3] and `C[C@H]1Oc2nc(N3C(=O)c4ccccc4C3c3cccnc3)ccc2N(C)C1=O` (stereo partly drawn) [Example A33-P1, (R)-1,3-dimethyl-6-(1-oxo-3-(pyridin-3-yl)isoindolin-2-yl)-1H-pyrido[2,3-B][1,3]oxazin-2(3H)-one] cannot be ordered by IC50: 10 to 100 nM for the first, no more than 10 nM for the second.

`CC1C(=O)N(C)c2ccc(N3C(=O)c4cc(C(=O)O)ccc4C3c3ccc(F)cc3)nc2N1C1CC1` (centres unmarked) [A77-P1/P4, 2-(4-cyclopropyl-1,3-dimethyl-2-oxo-1,2,3,4-tetrahydropyrido[2,3-b]pyrazin-6-yl)-1-(4-fluorophenyl)-3-oxoisoindoline-5-carboxylic acid] and `CC1C(=O)N(C)c2ccc(N3C(=O)c4ccccc4C3c3ccc(Cl)cc3)nc2N1C1COC1` (centres unmarked) [Example A31-P3, 6-(1-(4-chlorophenyl)-3-oxoisoindolin-2-yl)-1,3-dimethyl-4-(oxacyclebutan-3-yl)-3,4-dihydropyrido [3,2-B]pyrazin-2(1H)-one] cannot be ordered by IC50: no more than 10 nM for the first, no more than 10 nM for the second.

`CC1C(=O)N(C)c2cnc(N3C(=O)c4ccccc4C3c3ccc(F)nc3)nc2N1C1CC1` (centres unmarked) [A99-P3/P4, 8-cyclopropyl-2-(1-(6-fluoropyridin-3-yl)-3-oxoisoindol-2-yl)-5,7-dimethyl-7,8-dihydropteridin-6(5H)-one] and `CC1C(=O)N(C)c2cc(F)c(N3C(=O)c4ccccc4C3c3cccnc3)nc2N1C1CC1` (centres unmarked) [Example A44, 4-cyclopropyl-7-fluoro-1,3-dimethyl-6-(1-oxo-3-(pyridin-3-yl)isoindolin-2-yl)-3,4-dihydropyrido [2,3-b]pyrazin-2(1H)-one] cannot be ordered by IC50: no more than 10 nM for the first, no more than 10 nM for the second.

`C[C@@H]1C(=O)N(C)c2cnc(N3C(=O)c4c(cccc4[S+](C)[O-])C3c3cccnc3)nc2N1C` (stereo partly drawn) [A102-P2/P3, (7R)-5,7,8-trimethyl-2-(4-(methylsulfinyl)-3-oxo-1-(pyridin-3-yl)isoindolin-2-yl)-7,8-dihydropteridin-6(5H)-one] and `CC1C(=O)N(C)c2ccc(N3C(=O)c4ccccc4C3c3cccnc3)nc2N1C1CC1` (centres unmarked) [Example A36-P3, 4-cyclopropyl-1,3-dimethyl-6-(1-oxo-3-(pyridin-3-yl)isoindolin-2-yl)-3,4-dihydropyrido [3,2-b]pyrazin-2-(1H)-one] cannot be ordered by IC50: no more than 10 nM for the first, no more than 10 nM for the second.

`CC1C(=O)N(C)c2ccc(N3C(=O)c4ccccc4C3(O)c3ccc(F)cc3)nc2N1C1CC1` (centres unmarked) [Compound A25, 4-cyclopropyl-6-(1-(4-fluorophenyl)-1-hydroxy-3-oxoisoindolin-2-yl)-1,3-dimethyl-3,4-dihydropyrido[2,3-b]pyrazin-2(1H)-one] and `CC1C(=O)N(C)c2ccc(-n3c(=O)c4ccccc4n3-c3ccc(C#N)cc3)nc2N1C1CC1` (centres unmarked) [Example A27-P1, 6-(1-(4-cyanophenyl)-3-oxo-1,3-dihydro-2H-indazol-2-yl)-4-cyclopropyl-1,3-dimethyl-3,4-dihydropyrido [2,3-b]pyrazin-2(1H)-one] cannot be ordered by IC50: 10 to 100 nM for the first, no more than 10 nM for the second.

`CC1C(=O)N(C)c2ccc(N3C(=O)CCC3c3ccc(Cl)cc3)nc2N1C1CC1` (centres unmarked) [Example A3-P3, 4-cyclopropyl-6-(2-(4-chlorophenyl)-5-oxopyrrolidin-1-yl)-1,3-dimethyl-3,4-dihydropyrido[2,3-b]pyrazin-2(1H)-one] and `CC1C(=O)N(C)c2ccc(-n3c(=O)c4ccccc4n3-c3ccc(Cl)cc3)nc2N1C1COC1` (centres unmarked) [Example A26-P2, 6-(1-(4-chlorophenyl)-3-oxo-1,3-dihydro-2H-indazol-2-yl)-1,3-dimethyl-4-(oxetan-3-yl)-3,4-dihydropyrido [2,3-b]pyrazin-2(1H)-one] cannot be ordered by IC50: no more than 10 nM for the first, no more than 10 nM for the second.

`CC1C(=O)N(C)c2cnc(-n3c(=O)c4ccccc4n3-c3ccc(Cl)cc3)cc2N1C1CC1` (centres unmarked) [Example A29-P4, 7-(1-(4-chlorophenyl)-3-oxo-1H-indazol-2(3H)-yl)-1-cyclopropyl-2,4-dimethyl-1,2-dihydropyrido [3 4-b]pyrazin-3(4H)-one] and `CC1Oc2nc(-n3c(=O)c4ccccc4n3-c3ccc(Cl)cc3)ccc2N(C)C1=O` (centres unmarked) [Example A32-P3, 6-(1-(4-chlorophenyl)-3-oxo-1,3-dihydro-2H-indazol-2-yl)-1,3-dimethyl-1H-pyrido[2,3-B][1,4]oxazin-2(3H)-one] cannot be ordered by IC50: no more than 10 nM for the first, 10 to 100 nM for the second.

`CC1Oc2nc(N3C(=O)c4ccccc4C3c3ccc(F)cc3)ccc2N(C)C1=O` (centres unmarked) [Example A39-P1, 6-(1-(4-fluorophenyl)-3-oxoisoindolin-2-yl)-1,3-dimethyl-1H-pyrido[2,3-b][1,4]oxazin-2(3H)-one] and `C[C@H]1Oc2nc(N3C(=O)c4ccccc4C3c3ccc(Cl)cc3)ccc2N(C)C1=O` (stereo partly drawn) [Example A40-P1, (3R)-6-(1-(4-chlorophenyl)-3-oxoisoindolin-2-yl)-1,3-dimethyl-1H-pyrido[2,3-B][1,4]oxazin-2(3H)-one] cannot be ordered by IC50: no more than 10 nM for the first, no more than 10 nM for the second.

`C[C@@H]1C(=O)N(C)c2ccc(N3C(=O)c4ccccc4C3c3ccccn3)nc2N1C` (stereo partly drawn) [Example A42-P2, (3R)-1,3,4-trimethyl-6-(1-oxo-3-(pyridin-2-yl)isoindolin-2-yl)-3,4-dihydropyrido [2,3-b]pyrazin-2-(1H)-one] and `[2H]C([2H])([2H])N1C(=O)C(C)N(C2CC2)c2nc(N3C(=O)c4ccccc4C3c3cccnc3)ccc21` (centres unmarked) [Example A43-P4, 4-cyclopropyl-3-methyl-1-(trideuteromethyl)-6-(1-oxo-3-(pyridin-3-yl)isoindolin-2-yl)-3,4-dihydropyrido [2,3-B]pyrazin-2(1H)-one] cannot be ordered by IC50: no more than 10 nM for the first, no more than 10 nM for the second.

`CC1C(=O)N(CF)c2ccc(N3C(=O)c4ccccc4C3c3cccnc3)nc2N1C1CC1` (centres unmarked) [Example A45-P4, 4-cyclopropyl-1-(fluoromethyl)-3-methyl-6-(1-oxo-3-(pyridin-3-yl)isoindolin-2-yl)-3,4-dihydropyrido [2,3-b]pyrazin-2(1H)-one] and `CC1C(=O)N(CC(F)(F)F)c2ccc(N3C(=O)c4ccccc4C3c3cccnc3)nc2N1C1CC1` (centres unmarked) [Example A46-P4, 4-cyclopropyl-1-(2,2,2-trifluoroethyl)-3-methyl-6-(1-oxo-3-(pyridin-3-yl)isoindolin-2-yl)-3,4-dihydropyrido [2,3-b]pyrazin-2(1H)-one] cannot be ordered by IC50: no more than 10 nM for the first, no more than 10 nM for the second.
